Results: patent US7157477B2, “Aliphatic amino-substituted demethoxylated hypocrellins and their synthesis” (Altachem Pharma Ltd., priority 2000, dated 2007)
“Also recorded” adds a separate entry of the source.

How the values were obtained:
HeLa cells [1] = assay: Hoechst 33342 nuclear staining for apoptotic nuclei; assay type: cell-based
Procedure: Treated and control cells were incubated in DMEM with 0.5% FBS for 24 h at 37° C., then collected by detachment and centrifugation and incubated in a growth medium (FBS free) containing 5 μM H0342 for 5 min at 37° C. Nuclear fragmentation was assessed by fluorescence microscopy using Nikon FxA microscope. The EX wavelength was 330–380 nm with EM monitored at 420–450 nm.

HeLa cells [2] = assay: Distribution ratio (cellular uptake by fluorescence); assay type: cell-based; conditions: for distribution ratio [Sen/g cells]/[Sen/ml medium]: extra-cellular drug 0 to 5 μM, HB 15 min, 2-BA-2-DMHB 6 h, 37° C.
Procedure: HeLa cells were maintained as monolayer culture in DMEM containing 5% FBS and antibiotics PS (80 U/ml penicillin and 100 μg/ml streptomycin) at 37° C. in a humidified 5% CO2 incubator.
The distribution ratio or the photosensitizer is defined as [Sen/g cells]/[Sen/ml medium]. The values were measured as described previously. Exponentially growing cells were incubated in DMEM with HB for 15 min or with 2-BA-2-DMHB for 6 h at 37° C., ranging from 0 to 5 μM. […] The washed pellets (2×10^6) were dispersed in 3 ml of 10 mM Triton X-100 detergent. These solutions were excited at 460 nm and the fluorescence emission spectra were acquired using Hitachi-F4500 fluorescence spectrophotometer. Fluorescence at 610 nm was determined, corrected for the fluorescence of control (drug-free) sample, and compared with a standard fluorescence-intensity curve prepared with HB and 2-BA-2-DMHB solutions of known concentration.

HeLa cells [3] = assay: Flow cytometric detection of DNA fragmentation (PI staining); assay type: cell-based; conditions: for induction of apoptosis: evidenced by Hoechst staining, gel electrophoresis and flow cytometry; for hypoploid cell population: photosensitized cells
Procedure: Stock sensitizer-DMSO solutions were diluted with DMEM containing 1% FBS. […] The cells were detached using 0.2% trypsin/0.5 mM EDTA solution in PBS and centrifuge-washed to remove unbound dyes. The cells were then transferred to 35-mm dishes (Costar)) 1 ml inch dish containing 3×10s cells, and irradiated with different doses of light. The light source was a Red Light Treatment Instrument (Institute of Electronic Academia Sinica, China), Its total power output, more than 90% at 600–700 nm was 50 mW cm^2 at the position of the, samples, measured with BTY-8204 radiometer (Beijing Institute of Solar Energy, China). Immediately after irradiation, 2 ml DMEM containing 7.5% FBS was added to each dish. Then a portion of the cells was assessed for survival as follows and the rest were incubated in the medium until they could be checked for nucleus staining, DNA fragmentation and flow cytometry analysis.
A propidium iodide (PI) staining technique was used to assess the status of cellular DNA [19]. Cells were washed twice with ice-cold PBS and then permeabilized and fixed in 80% ethanol at 4° C. for 24 h. Cells were washed twice with PBS and suspended in PBS with RNase A (100 mg/ml) and incubated at 37° C. for 30 min. At this point the PI solution (10 mg/ml in PBS) was added to the cells in RNase solution, and the incubation was continued for 30 min at 4° C. After that, the cells were analyzed by Epics XL flow cytometer (Coulter, USA).

HeLa cells [4] = assay: DNA agarose gel electrophoresis (DNA ladder); assay type: cell-based; conditions: for DNA ladder, photosensitizer alone: 4 μM incubation, no light; for DNA ladder at early times: 3 and 6 h post-irradiation; for DNA ladder after photosensitization: 24 h after treatment at LD70 and LD90
Procedure: Stock sensitizer-DMSO solutions were diluted with DMEM containing 1% FBS. […] The cells were detached using 0.2% trypsin/0.5 mM EDTA solution in PBS and centrifuge-washed to remove unbound dyes. The cells were then transferred to 35-mm dishes (Costar)) 1 ml inch dish containing 3×10s cells, and irradiated with different doses of light. […] Immediately after irradiation, 2 ml DMEM containing 7.5% FBS was added to each dish.
The DNA was extracted as described previously [18] with some modification. Cells (2×106) were detached with the use of 0.2% trypsin/0.5 mM EDTA solution washed with PBS and pelleted by centrifugation. The cell pellets were suspended in lysis buffer consisting of 0.5% sodium dodecyl sulfate (SDS), 2 mM EDTA, 100 mg/ml proteinase K, and SO mM Tris-HC buffer (pH 8.0). After 24 h lysis at 37° C., the DNA was extracted with an equal volume of water-saturated phenol/chloroform/isoamyl alcohol (25:24:1). The aqueous phase was collected and DNA was precipitated with 0.5 volume ammonium acetate and 2.5 volumes cold absolute ethanol, and stored overnight at −20° C. The DNA was dissolved in TE (0.5 M EDTA in 1 M Tris-HCl buffer, pH 8.0) and incubated with DNase-free RNase A (100 mg/ml) at 37° C. for 1 h. The samples were electrophoresed for 3 h at 60 V in 1.5% agarose gel containing 0.5 μg ml^−1 ethidium bromide and visualized by UV transillumination.

[5] = Absorption spectra of photosensitizers in chloroform; assay type: physicochemical; conditions: for log6 at first band λmax / log6 at second band λmax / log6 at third band λmax / λmax (nm), first band / λmax (nm), second band / λmax (nm), third band: in chloroform
HeLa cells [6] = assay: Sensitizer localization by fluorescence microscopy; assay type: cell-based; conditions: 4 μM; HB 15 min, 2-BA-2-DMHB 6 h
Procedure: Cells growing on glass were incubated in DMEM with 4 μM HB for 15 min or with 4 μM 2-BA-2-DMHB for 6 h at 37° C. Fluorescence was visualized by Nikon FXA microscope to assess sites of sensitizer location (excitation=400–450 nm, emission=600–650 nm).

HeLa cells [7] = conditions: for photopotentiation factor (LD50 dark / LD50 with 24 J cm−2 red light): MTT assay
Procedure: Stock sensitizer-DMSO solutions were diluted with DMEM containing 1% FBS. […] The cells were detached using 0.2% trypsin/0.5 mM EDTA solution in PBS and centrifuge-washed to remove unbound dyes. The cells were then transferred to 35-mm dishes (Costar)) 1 ml inch dish containing 3×10s cells, and irradiated with different doses of light. […] Immediately after irradiation, 2 ml DMEM containing 7.5% FBS was added to each dish. Then a portion of the cells was assessed for survival as follows and the rest were incubated in the medium until they could be checked for nucleus staining, DNA fragmentation and flow cytometry analysis.
Cell survival was estimated by the MTT assay [11,15,16]. PDT-treated cells were transferred into flat-bottomed 96-well plates (Costar) 100 μl in each well containing 1×10^4 cells and the cells were incubated at 37° C. in a. CO2, incubator for 20 h. Viability was determined by adding 10 μl MTT (10 mg ml^−1) to each well, and the mixture was incubated for 4 h at 37° C. Culture medium was then replaced with dimethylsulfoxide to dissolve the formazan crystals. […] Samples were measured in 12 replicates and each experiment was repeated at least twice. Survival of PDT-treated cells was normalized against cells incubated with photosensitizer alone.

[8] = Superoxide anion radical generation by DMPO spin-trapping ESR; assay type: physicochemical; conditions: in DMSO, relative to HB
Procedure: (§1) Singlet oxygen yields were determined as previously reported by the DPA bleaching method. The electron spin resonance (ESR) measurement of, spin trapping of DMPO was used to determine the generation of O2 by hypocrellins.
DMPO spin-trapping ESR measurement was used here to verify the formation of superoxide anion radical generated by photosensitization of HB and 2-BA-2-DMHB.

HeLa cells [9] = assay: Dark toxicity, MTT assay; assay type: cell-based; conditions: HB 15 min, 2-BA-2-DMHB 6 h; highest concentration tested 100 μM
Procedure: The dark toxicity characteristic of each compound was assessed separately following a similar procedure for cell exposure to graded doses of […] for 15 min or 2-BA-2-DMHB for 6 h. Precautions were taken to avoid exposure of the cells to light throughout the period when'the cells were exposed to, or contained, photosensitizers.

AIDS = conditions: cited from earlier work
[10] = Singlet oxygen yield by DPA bleaching method; assay type: physicochemical; conditions: in DMSO
Procedure: as §1

[11] = in vivo; cited from earlier work
[12] = tested on: EMT6 Ed mouse tumor cells; conditions: 24 J cm−2; Estey's results [8]; cited from earlier work

Row | Compound | distribution ratio [Sen/g cells]/[Sen/ml medium] (HeLa cells [2]) | induction of apoptosis (HeLa cells [3]) | hypoploid cell population (HeLa cells [3]; LD90) | DNA ladder, photosensitizer alone (HeLa cells [4]) | DNA ladder at early times (HeLa cells [4]) | DNA ladder after photosensitization (HeLa cells [4]) | log6 at first band λmax [5] | log6 at second band λmax [5] | log6 at third band λmax [5] | λmax (nm), first band [5] | λmax (nm), second band [5] | λmax (nm), third band [5] | sites of sensitizer localization (HeLa cells [6]) | photopotentiation factor (LD50 dark / LD50 with 24 J cm−2 red light) (HeLa cells [7]) | LD50 in the dark (HeLa cells [9]) | toxicity in animals [11] | other results
1 | CCCCNc1c(O)c2c(=O)cc(OC)c3c4c(OC)cc(=O)c5c(O)c(OC)c6c(c(c1C(C(C)=O)=C(C)C6)c23)c54 [Example 2-BA-2-DMHB, 2-butylamino-2-demethoxy-hypocrellin B] | 107.2±4.3 | induced apoptosis | appearance of hypoploid cell population | No DNA ladder was observed | No obvious DNA ladder was detected | characteristic DNA ladder observed | 4.06 | 4.09 | 4.10 | 463 nm | 583 nm | 621 nm | primarily at ER; also recorded: mainly localized at endoplasmic reticulum | more than 250 fold | more than 100 μM |  | nuclear morphology in the absence of light irradiation (HeLa cells [1]; 4 μM, 6 h, dark control): remained intact; apoptotic nuclei after photosensitization (HeLa cells [1]; LD70, 24 h post-irradiation): apoptotic nuclei were detected; intra-cellular level relative to HB (HeLa cells [2]; equimolar levels of the drugs): approximately two fold as much as HB; also recorded: approximately two times as much as that of HB; speed of apoptosis induction (HeLa cells [3]; post-irradiation, LD90): induced apoptosis more quickly than HB; extinction coefficient at 583 nm relative to HB at 548 nm [5]: 2.5 fold; extinction coefficient at 621 nm relative to HB at 580 nm [5]: over 3.8 fold; photopotentiation relative to HB (HeLa cells [7]; in vitro): over 25 fold; concentration causing 50% cytotoxicity at light dose of 24 J cm−2 (HeLa cells [7]; red light 24 J cm−2): 0.25–0.5 FM; Relative quantum yields (O2−) ([8]; listed as 2-BA-2-DMHD): 2.7
2 | COc1c(O)c2c(=O)cc(OC)c3c4c(OC)cc(=O)c5c(O)c(OC)c6c(c(c1CC(C)=C6C(C)=O)c23)c54 [HB, 3,10-dihydroxyl-4,9-dione-1,12-(2′-methyl-3′-actyl-2′,3′-dehydro)propilidene(1′,3′)-2,6,7,11-tetramethoxyl-perylene, reference compound] | 49.1±2.2 | induced apoptosis | appearance of hypoploid cell population | No DNA ladder was observed | No obvious DNA ladder was detected | characteristic DNA ladder observed | 4.06 | 3.70 | 3.52 | 466 nm | 548 nm | 580 nm | prominent lysosomal uptake, and endoplasmic reticulum (ER) staining; also recorded: mainly localized at lysosomal and endoplasmic reticulum | 10 fold | about 20 μM | low toxicity | anti-AIDS action (AIDS): distinct anti-AIDS action; Quantum yields (1O2), singlet oxygen yield [10]: 0.76; photopotentiation factor [12]: 10; Relative quantum yields (O2−) [8]: 1
3 | COc1c(O)c2c(=O)cc(OC)c3c4c(OC)cc(=O)c5c(O)c(OC)c6c(c(c1CC(C)(O)C6C(C)=O)c23)c54 (stereo not drawn) [hypocrellin A, 3,10-dihydroxyl-4,9-dione-1,12-(2′-hydroxyl-2′-methyl-3′-actyl)propilidene(1′,3′)-2,6,7,11-tetramethoxyl-perylene] |  |  |  |  |  |  |  |  |  |  |  |  |  |  |  | low toxicity | 
